Measured values as given in US20100221736A1, “METHOD FOR PREDICTING SUSCEPTIBILITY TO A MENTAL DISORDER” (priority 2007, published 2010).

Experiments:
Assay type in all cases: cell-based, human
GCLM = GCLM protein expression by Western Blot in skin fibroblasts after t-BHQ treatment; details: for increase of GCLM protein expression induced by t-BHQ treatment: t-BHQ vs baseline; for GCLM protein expression: t-BHQ treated (50 μM, 18 h)
Procedure: (§1) Human fibroblast cultures were established from skin biopsies as described in Tosic et al.[8] Cells were grown with DMEM medium (0.5 l medium completed with 10 ml Ultroser-G serum, 5 ml Penicillin/Streptomycin, 5 ml sodium pyruvate (100 mM)) at 37° C. in a humidified atmosphere containing 5% CO2/95% air. Human fibroblasts near confluence after five passages were treated for 18 h with 50 μM t-BHQ in 0.05% DMSO (t-BHQ condition) or 0.05% DMSO alone (baseline condition). Cell lysis was performed on ice. Cells were washed with PBS and scraped with lysis buffer (2.37 ml scraping buffer (Tris-HCl 50 mM, pH 7.2; NaCl 150 mM; NaF 10 mM; EDTA 2 mM; EGTA 2 mM; Triton X100 1%); 100 μl Complete (1 tablet/2 ml H2O); 25 μl PMSF 100 mM; 2.5 μl DTT 1 mM). Lysates were homogenized 10 times with a 25-gauge needle, and cellular debris were cleared by centrifugation (20,000 g, 14 min, 4° C.). Protein concentration was determined by BCA protein assay. Equal amounts of protein (50 μg) were dissolved in 5× Laemmli sample buffer, separated by 12% SDS-PAGE, and electro-transferred to a PVDF membrane. Membranes were blocked (BSA 1%/milk powder 3%) overnight at 4° C. Following incubation with primary and secondary antibodies, protein was visualized by using the ECL detection system and protein abundance was quantified by densitometry analysis (Multi Genius, Bio Imaging System, Syngene). A fibroblast protein pool from 5 different individuals was used as an external control in all experiments. The results were normalized to a -Tubulin, and reported relative to the specific protein levels measured in the protein pool.

skin fibroblasts = assay: GSH content in cultured skin fibroblasts after t-BHQ treatment; details: for GSH content: t-BHQ treated (50 μM, 18 h)
Procedure: (§2) Human fibroblast cultures were established from skin biopsies as described in Tosic et al.[8] Cells were grown with DMEM medium (0.5 l medium completed with 10 ml Ultroser-G serum, 5 ml Penicillin/Streptomycin, 5 ml sodium pyruvate (100 mM)) at 37° C. in a humidified atmosphere containing 5% CO2/95% air. Human fibroblasts near confluence after five passages were treated for 18 h with 50 μM t-BHQ in 0.05% DMSO (t-BHQ condition) or 0.05% DMSO alone (baseline condition). Cells were washed once with phosphate-buffer saline (PBS), trypsinized and pelleted. The pellet was washed once, taken up into PBS and frozen. GSH content and GCL activity was determined in protein extracts from fibroblasts cultures, with a fluorescence-based microtiter plate assay according to White and colleagues [White et al, 2003]. GCL activity was determined as the difference between GSH synthesis in unblocked and GSH synthesis in BSO treated wells per min and per mg protein. Protein concentration has been determined by BCA protein assay. In addition, GSH contents under untreated conditions were also routinely measured in all participants that had spent skin fibroblasts (33 controls and 39 patients) by a colorimetric GSH assay kit (Calbiochem, San Diego, USA).

GCLC = GCLC protein expression by Western Blot in skin fibroblasts after t-BHQ treatment; details: for increase of GCLC protein expression by t-BHQ treatment (factor): t-BHQ vs baseline
Procedure: as §1

[1] = test system: glutamate cysteine ligase (GCL); assay: GCL activity in cultured skin fibroblasts after t-BHQ treatment; details: for increase of GCL activity after t-BHQ treatment (factor): t-BHQ vs baseline
Procedure: as §2

[2] = fibroblasts of control subjects
[3] = fibroblasts of schizophrenia patients
[4] = t-BHQ treatment, subjects with GCLC GAG TNR genotypes 7/7 & 7/9
[5] = t-BHQ treatment, subjects with genotypes 7/8, 8/8, 8/9 & 9/9

SMILES: CC(C)(C)c1cc(O)ccc1O [t-BHQ, tert-butylhydroquinone]
- increase of GCLM protein expression induced by t-BHQ treatment (GCLM; control subjects): 73%
- increase of GCLM protein expression induced by t-BHQ treatment (GCLM; patients): 74%
- GCLM protein expression (GCLM; [2]): 108.0 ± 24.0 α-Tubulin corrected arbitrary units
- GCLM protein expression (GCLM; [3]): 107.6 ± 24.1 α-Tubulin corrected arbitrary units
- GSH content (skin fibroblasts; [2]): 144.9 ± 21.5 nmol GSH/mg protein
- GSH content (skin fibroblasts; [3]): 136.3 ± 19.1 nmol GSH/mg protein
- increase of GSH content after t-BHQ treatment (factor) (skin fibroblasts; very similar in patients and controls, t-BHQ vs baseline): 2.53
- increase of GCLC protein expression by t-BHQ treatment (factor) (GCLC; controls): 1.44
- increase of GCLC protein expression by t-BHQ treatment (factor) (GCLC; patients): 1.32
- GCLC protein expression (GCLC; t-BHQ treated (50 μM, 18 h), fibroblasts of control subjects): 64.1 ± 17.5 α-Tubulin corrected arbitrary units
- GCLC protein expression (GCLC; t-BHQ treated (50 μM, 18 h), fibroblasts of schizophrenia patients): 45.4 ± 15.8 α-Tubulin corrected arbitrary units
- GCLC protein expression (GCLC; [4]): 58.9±19.0
- GCLC protein expression (GCLC; [5]): 45.6±13.3
- increase of GCL activity after t-BHQ treatment (factor) ([1]; controls): 3.45
- increase of GCL activity after t-BHQ treatment (factor) ([1]; patients): 2.95
- GCL activity ([1]; t-BHQ treated (50 μM, 18 h), fibroblasts of control subjects, average and standard deviation): 0.847 ± 0.26 nmol GSH/min/mg protein
- GCL activity ([1]; t-BHQ treated (50 μM, 18 h), fibroblasts of schizophrenia patients, average and standard deviation): 0.627 ± 0.16 nmol GSH/min/mg protein
- GCL activity [1, 4]: 0.784±0.246
- GCL activity [1, 5]: 0.584±0.141
